From paper PMC6934184, “Selective DNA-PKcs inhibition extends the therapeutic index of localized radiotherapy and chemotherapy” (The Journal of Clinical Investigation, 2019)

Target: T1, PDGFRA T674I (Homo sapiens, UniProt P16234, T674I)
T1 construct: purchased Thermo Fisher Scientific (Life Technologies) SelectScreen
Assay: SelectScreen Z'LYTE
Assay type: biochemical
In short: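 NU5455 was profiled across the SelectScreen Broad panel of kinase activity and binding assays. Z'LYTE reactions such as CSF1R ran at apparent Km ATP, while the Adapta CAMK1 assay used ATP listed as 10. Values are given as percent.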

T1 sequence (P16234 24-1089 T674I): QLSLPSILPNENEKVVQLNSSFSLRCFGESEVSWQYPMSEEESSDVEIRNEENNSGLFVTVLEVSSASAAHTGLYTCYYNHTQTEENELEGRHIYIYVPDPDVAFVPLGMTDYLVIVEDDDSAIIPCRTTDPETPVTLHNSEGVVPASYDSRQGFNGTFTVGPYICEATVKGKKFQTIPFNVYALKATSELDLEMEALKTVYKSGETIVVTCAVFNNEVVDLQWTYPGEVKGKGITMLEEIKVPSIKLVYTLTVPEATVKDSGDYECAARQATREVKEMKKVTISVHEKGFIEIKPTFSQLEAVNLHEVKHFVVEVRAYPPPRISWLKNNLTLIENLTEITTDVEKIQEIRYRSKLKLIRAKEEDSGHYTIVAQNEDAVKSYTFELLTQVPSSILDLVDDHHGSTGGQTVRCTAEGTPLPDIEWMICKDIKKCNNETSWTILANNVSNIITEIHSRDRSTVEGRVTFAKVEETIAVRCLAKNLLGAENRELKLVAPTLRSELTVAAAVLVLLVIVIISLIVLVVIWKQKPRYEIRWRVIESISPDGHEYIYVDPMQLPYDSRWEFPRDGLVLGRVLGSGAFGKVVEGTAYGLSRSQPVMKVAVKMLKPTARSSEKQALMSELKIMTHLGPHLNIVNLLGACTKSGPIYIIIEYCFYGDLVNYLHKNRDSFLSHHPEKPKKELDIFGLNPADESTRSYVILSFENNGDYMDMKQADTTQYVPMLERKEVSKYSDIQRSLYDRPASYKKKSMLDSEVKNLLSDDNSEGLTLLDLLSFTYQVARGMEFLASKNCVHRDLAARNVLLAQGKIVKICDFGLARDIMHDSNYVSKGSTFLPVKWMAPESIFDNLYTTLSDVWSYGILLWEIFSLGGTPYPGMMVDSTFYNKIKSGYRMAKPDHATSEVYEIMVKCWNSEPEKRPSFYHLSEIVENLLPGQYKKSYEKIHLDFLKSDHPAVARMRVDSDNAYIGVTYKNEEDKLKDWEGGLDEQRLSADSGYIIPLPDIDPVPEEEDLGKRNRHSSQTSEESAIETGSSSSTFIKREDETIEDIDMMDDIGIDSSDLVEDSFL

With `CN(C(=O)CN1CCOCC1)c1ccc2sc3c(-c4cccc5c(=O)cc(N6CC7CCC(C6)O7)oc45)cccc3c2c1` [NU5455] the inhibition at 1 µM was -8.9%.
